In ChEMBL document CHEMBL5465560, “Selectivity Literature for EUbOPEN Chemogenomic Library” (2024):

How the values were obtained:
[1] = target: Vascular endothelial growth factor receptor 2 (Homo sapiens, UniProt P35968); conditions: at 10 µM
[2] = target: T1, Tyrosine-protein kinase JAK1 (Homo sapiens, UniProt P23458); experiment: Selectivity interaction (Ambit KINOMEscan and KiNATiv profiling in Jurkat cells) EUB0000090b JAK1; format: cell-based; conditions: at 1 µM
[3] = target: MAP kinase-interacting serine/threonine-protein kinase 2 (Homo sapiens, UniProt Q9HBH9); experiment: Selectivity interaction (Ambit KINOMEscan and KiNATiv profiling in Jurkat cells) EUB0000090b MKNK2; format: cell-based; conditions: at 1 µM
[4] = target: Serine/threonine-protein kinase PRP4 homolog (Homo sapiens) (UniProt Q13523); experiment: Selectivity interaction (ActivX KiNativ screen (kinase selectivity in THP-1 cell lysates)) EUB0000639a PRPF4; format: subcellular; conditions: lysate, at 0.2 µM
[5] = target: Homeodomain-interacting protein kinase 3 (Homo sapiens, UniProt Q9H422); experiment: Selectivity interaction (Kinase panel (Invitrogen)) EUB0000639a HIPK3; conditions: at 200 nM
[6] = target: Non-receptor tyrosine-protein kinase TYK2 (Homo sapiens, UniProt P29597); experiment: Selectivity interaction (ActivX KiNativ screen (kinase selectivity in THP-1 cell lysates)) EUB0000639a TYK2; format: subcellular; conditions: lysate, at 5 µM
[7] = target: Interleukin-1 receptor-associated kinase 1 (Homo sapiens) (UniProt P51617); experiment: Selectivity interaction (ActivX KiNativ screen (kinase selectivity in THP-1 cell lysates)) EUB0000639a IRAK1; format: subcellular; conditions: lysate
[8] = target: Histone-lysine N-methyltransferase, H3 lysine-36 specific (Homo sapiens) (UniProt Q96L73); experiment: Selectivity interaction (PWWP, WD40, and Tudor domain panel (DSLS measurements, literature)) EUB0000270b NSD1
D(3) dopamine receptor = D(3) dopamine receptor (Homo sapiens, UniProt P35462); experiment: Selectivity interaction (Dopamine D3 receptor assay, human recombinant ) EUB0000877a DRD3
Adenosine receptor A2a = Adenosine receptor A2a (Homo sapiens, UniProt P29274); experiment: Selectivity interaction (Panel of non-epigenetic targets (kinases, GPCRs, ion channels, and transporters, Eurofins) ) EUB0000271b ADORA2A; conditions: at 1 µM
[9] = system: Hepatocyte growth factor receptor (Homo sapiens), P08581 [Y1235D]; experiment: (§1) Selectivity interaction (KinomeScan (DiscoverX)) EUB0000229b MET; conditions: at 1 µM
[10] = target: Hepatocyte growth factor receptor (Homo sapiens, UniProt P08581); experiment: as §1; conditions: at 10 µM
[11] = system: Hepatocyte growth factor receptor (Homo sapiens), P08581 [M1250T]; experiment: as §1; conditions: at 1 µM
[12] = target: Cyclin-C/Cyclin-dependent kinase 19 (Homo sapiens) (UniProt Q9BWU1+P24863); experiment: Selectivity interaction (ProQinase) EUB0000171b CDK19; format: protein-complex assay
[13] = target: Bromodomain-containing protein 8 (Homo sapiens) (UniProt Q9H0E9); experiment: Selectivity interaction (Human bromodomain panel (DSF assay)) EUB0000233b BRD8
[14] = target: eIF-2-alpha kinase GCN2 (Homo sapiens) (UniProt Q9P2K8); experiment: Selectivity interaction (ActivX KiNativ screen (ex vivo kinase selectivity in human PBMCs)) EUB0001619a EIF2AK4; format: cell-based; conditions: PBMC, at 1 µM
[15] = target: T2, Serine/threonine-protein kinase D3 (Homo sapiens) (UniProt O94806); experiment: Selectivity interaction (KinomeScan (DiscoverX)) EUB0000618a PRKD3; conditions: at 10 µM
T2 sequence (whole entry): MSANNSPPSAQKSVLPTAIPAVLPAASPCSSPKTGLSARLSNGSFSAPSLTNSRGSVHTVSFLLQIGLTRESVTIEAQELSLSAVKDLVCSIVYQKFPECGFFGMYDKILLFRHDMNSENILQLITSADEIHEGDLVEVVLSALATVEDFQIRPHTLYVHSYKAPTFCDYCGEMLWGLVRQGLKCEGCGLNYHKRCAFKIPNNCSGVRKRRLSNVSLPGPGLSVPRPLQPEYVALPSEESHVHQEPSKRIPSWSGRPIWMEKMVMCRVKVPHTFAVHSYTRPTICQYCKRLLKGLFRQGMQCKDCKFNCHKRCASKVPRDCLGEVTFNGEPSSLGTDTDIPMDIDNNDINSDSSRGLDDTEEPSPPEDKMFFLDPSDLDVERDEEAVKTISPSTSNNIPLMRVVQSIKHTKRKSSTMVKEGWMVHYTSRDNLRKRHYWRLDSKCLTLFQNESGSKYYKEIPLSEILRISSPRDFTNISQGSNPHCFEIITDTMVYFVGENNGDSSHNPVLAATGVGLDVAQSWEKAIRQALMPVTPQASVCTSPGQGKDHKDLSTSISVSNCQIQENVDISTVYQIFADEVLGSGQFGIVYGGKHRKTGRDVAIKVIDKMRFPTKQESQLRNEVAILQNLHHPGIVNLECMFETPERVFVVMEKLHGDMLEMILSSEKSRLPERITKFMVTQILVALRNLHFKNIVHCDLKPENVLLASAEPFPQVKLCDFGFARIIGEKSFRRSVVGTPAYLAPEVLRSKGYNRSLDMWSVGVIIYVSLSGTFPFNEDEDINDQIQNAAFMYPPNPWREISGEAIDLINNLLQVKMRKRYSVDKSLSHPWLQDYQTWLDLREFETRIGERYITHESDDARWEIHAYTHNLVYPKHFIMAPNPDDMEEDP

[16] = target: Vascular endothelial growth factor receptor 1 (Homo sapiens) (UniProt P17948); experiment: Selectivity interaction (KinomeScan (DiscoverX)) EUB0000607a FLT1; conditions: at 10 µM
[17] = target: Ephrin type-A receptor 5 (Homo sapiens) (UniProt P54756); experiment: Selectivity interaction (KinomeScan (DiscoverX)) EUB0000607a EPHA5; conditions: at 10 µM
[18] = system: Phosphatidylinositol 4,5-bisphosphate 3-kinase catalytic subunit alpha isoform (Homo sapiens), P42336 [H1047Y]; conditions: at 10 µM
[19] = target: T1, Tyrosine-protein kinase JAK1; experiment: Selectivity interaction (Kinase panel (KiNativ target engagement assay in Jurkat cells)) EUB0001635a JAK1; format: cell-based; conditions: Selectivity number of off-targets 0.0, Selectivity number of targets 233.0, Source Knowledge https://www.sciencedirect.com/science/article/pii/S2451945619300674?via%3Dihub, at 1 µM

Interleukin-1 receptor-associated kinase 1 (Homo sapiens), sequence (P51617 whole entry, looked up, the tested form may be a part): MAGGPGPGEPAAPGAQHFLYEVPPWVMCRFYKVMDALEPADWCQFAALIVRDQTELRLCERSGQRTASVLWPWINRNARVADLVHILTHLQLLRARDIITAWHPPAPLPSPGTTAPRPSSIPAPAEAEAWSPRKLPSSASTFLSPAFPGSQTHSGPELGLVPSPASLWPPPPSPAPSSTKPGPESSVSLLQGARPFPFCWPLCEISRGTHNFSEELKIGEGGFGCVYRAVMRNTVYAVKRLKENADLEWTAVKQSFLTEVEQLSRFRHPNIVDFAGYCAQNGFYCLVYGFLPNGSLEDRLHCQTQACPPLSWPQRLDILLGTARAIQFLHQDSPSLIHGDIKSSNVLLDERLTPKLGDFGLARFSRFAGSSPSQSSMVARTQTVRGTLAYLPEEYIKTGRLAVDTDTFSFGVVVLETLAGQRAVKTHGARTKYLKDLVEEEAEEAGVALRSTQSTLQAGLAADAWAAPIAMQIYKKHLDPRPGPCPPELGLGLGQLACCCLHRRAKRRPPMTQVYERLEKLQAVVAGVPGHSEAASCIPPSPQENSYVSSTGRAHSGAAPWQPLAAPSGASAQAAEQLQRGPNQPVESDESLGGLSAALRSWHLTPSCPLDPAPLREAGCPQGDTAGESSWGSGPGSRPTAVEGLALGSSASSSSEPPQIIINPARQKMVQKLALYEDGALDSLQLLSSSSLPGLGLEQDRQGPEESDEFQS
T1 sequence (P23458 whole entry): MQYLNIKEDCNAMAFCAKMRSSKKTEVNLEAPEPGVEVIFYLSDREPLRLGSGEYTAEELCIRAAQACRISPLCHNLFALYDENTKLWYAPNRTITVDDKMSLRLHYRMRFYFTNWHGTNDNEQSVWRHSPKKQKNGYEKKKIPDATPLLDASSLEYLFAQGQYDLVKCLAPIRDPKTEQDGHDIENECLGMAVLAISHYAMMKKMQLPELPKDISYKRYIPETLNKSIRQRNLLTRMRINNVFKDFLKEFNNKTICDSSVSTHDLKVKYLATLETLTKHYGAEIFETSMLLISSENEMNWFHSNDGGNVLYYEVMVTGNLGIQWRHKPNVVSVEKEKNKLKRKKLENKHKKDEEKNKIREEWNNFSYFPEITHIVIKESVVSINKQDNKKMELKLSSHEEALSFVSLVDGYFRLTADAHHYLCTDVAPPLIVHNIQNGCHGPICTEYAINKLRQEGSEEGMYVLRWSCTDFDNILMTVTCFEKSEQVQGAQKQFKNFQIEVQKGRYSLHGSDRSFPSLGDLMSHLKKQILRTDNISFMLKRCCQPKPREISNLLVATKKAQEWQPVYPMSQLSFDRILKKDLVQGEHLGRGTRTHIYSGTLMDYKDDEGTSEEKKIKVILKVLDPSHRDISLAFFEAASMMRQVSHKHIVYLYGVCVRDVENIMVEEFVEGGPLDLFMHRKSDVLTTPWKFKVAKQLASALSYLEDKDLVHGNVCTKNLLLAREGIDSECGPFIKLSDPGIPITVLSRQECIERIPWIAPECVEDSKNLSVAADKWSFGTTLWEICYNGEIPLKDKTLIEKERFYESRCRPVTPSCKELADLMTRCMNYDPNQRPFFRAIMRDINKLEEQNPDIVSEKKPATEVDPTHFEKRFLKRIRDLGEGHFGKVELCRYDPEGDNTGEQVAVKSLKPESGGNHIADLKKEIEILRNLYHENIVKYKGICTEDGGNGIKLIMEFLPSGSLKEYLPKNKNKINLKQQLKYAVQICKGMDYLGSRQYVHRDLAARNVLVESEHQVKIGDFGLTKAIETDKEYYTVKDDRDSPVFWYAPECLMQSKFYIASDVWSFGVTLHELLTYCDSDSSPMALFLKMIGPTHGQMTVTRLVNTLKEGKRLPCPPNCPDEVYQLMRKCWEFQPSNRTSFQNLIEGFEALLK
Bromodomain-containing protein 8 (Homo sapiens), sequence (Q9H0E9 whole entry): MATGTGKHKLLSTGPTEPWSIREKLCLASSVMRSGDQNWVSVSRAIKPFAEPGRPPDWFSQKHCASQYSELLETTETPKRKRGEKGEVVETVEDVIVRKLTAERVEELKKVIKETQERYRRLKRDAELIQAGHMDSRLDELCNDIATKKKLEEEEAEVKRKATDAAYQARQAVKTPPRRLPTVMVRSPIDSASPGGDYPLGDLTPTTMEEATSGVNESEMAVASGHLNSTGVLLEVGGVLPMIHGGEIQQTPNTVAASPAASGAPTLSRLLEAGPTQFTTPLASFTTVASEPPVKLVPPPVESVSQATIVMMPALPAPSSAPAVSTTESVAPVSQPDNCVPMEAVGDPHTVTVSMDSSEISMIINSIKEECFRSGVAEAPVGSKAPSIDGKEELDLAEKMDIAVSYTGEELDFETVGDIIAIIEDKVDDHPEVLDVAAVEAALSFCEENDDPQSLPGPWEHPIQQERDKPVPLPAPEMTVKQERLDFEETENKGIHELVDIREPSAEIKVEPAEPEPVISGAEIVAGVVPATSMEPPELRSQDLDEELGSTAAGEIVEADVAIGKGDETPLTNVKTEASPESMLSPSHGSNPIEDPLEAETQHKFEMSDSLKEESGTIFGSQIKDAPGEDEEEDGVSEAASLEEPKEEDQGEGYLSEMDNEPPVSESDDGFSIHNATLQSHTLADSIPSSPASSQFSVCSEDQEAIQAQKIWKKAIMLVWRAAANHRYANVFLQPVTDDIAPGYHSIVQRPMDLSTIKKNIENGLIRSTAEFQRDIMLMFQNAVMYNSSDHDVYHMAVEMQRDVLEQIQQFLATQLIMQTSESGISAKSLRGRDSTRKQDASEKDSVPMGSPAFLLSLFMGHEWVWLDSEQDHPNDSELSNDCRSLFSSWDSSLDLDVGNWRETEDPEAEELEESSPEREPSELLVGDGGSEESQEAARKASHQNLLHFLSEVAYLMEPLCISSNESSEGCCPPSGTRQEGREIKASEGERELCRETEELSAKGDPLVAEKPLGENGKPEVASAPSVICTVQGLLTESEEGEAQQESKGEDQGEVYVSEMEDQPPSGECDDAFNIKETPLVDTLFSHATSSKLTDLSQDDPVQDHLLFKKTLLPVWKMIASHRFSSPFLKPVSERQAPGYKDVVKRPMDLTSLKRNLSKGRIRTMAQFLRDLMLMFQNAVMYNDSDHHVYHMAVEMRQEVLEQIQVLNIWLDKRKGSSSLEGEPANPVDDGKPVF
Vascular endothelial growth factor receptor 1 (Homo sapiens), sequence (P17948 whole entry): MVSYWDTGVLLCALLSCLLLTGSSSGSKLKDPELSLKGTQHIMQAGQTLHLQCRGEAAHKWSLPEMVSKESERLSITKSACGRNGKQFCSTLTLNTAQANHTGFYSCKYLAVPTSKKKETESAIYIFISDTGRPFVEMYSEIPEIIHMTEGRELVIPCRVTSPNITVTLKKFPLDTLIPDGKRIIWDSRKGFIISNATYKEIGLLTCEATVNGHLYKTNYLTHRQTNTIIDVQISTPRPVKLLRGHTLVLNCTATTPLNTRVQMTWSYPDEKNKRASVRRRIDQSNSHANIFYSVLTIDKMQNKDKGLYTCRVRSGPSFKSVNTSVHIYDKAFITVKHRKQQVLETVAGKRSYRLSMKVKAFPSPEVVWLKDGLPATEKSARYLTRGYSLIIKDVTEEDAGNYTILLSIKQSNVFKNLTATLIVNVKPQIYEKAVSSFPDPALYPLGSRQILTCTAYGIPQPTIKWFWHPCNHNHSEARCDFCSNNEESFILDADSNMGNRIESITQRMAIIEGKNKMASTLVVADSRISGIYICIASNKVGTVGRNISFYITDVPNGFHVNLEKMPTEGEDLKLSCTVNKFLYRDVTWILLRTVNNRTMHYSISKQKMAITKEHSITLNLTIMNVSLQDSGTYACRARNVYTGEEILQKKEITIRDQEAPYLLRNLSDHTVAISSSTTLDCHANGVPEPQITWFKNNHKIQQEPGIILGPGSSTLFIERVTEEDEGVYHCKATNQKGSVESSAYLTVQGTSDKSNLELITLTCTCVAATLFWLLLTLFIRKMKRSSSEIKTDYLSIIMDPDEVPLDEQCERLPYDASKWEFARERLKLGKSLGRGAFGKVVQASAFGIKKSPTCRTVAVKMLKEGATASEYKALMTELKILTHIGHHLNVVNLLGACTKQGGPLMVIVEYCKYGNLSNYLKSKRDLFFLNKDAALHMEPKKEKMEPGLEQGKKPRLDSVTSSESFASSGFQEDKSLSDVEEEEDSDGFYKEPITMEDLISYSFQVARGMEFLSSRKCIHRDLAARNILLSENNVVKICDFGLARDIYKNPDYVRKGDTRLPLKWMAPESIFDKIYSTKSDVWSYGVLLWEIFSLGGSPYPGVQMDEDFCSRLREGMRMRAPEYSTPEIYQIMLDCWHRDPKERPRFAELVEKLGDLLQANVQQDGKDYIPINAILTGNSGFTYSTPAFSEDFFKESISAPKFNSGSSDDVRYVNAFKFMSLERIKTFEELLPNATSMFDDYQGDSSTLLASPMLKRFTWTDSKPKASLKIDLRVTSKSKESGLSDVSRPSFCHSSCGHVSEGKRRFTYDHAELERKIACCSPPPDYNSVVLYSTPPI
MAP kinase-interacting serine/threonine-protein kinase 2, sequence (Q9HBH9 whole entry, looked up): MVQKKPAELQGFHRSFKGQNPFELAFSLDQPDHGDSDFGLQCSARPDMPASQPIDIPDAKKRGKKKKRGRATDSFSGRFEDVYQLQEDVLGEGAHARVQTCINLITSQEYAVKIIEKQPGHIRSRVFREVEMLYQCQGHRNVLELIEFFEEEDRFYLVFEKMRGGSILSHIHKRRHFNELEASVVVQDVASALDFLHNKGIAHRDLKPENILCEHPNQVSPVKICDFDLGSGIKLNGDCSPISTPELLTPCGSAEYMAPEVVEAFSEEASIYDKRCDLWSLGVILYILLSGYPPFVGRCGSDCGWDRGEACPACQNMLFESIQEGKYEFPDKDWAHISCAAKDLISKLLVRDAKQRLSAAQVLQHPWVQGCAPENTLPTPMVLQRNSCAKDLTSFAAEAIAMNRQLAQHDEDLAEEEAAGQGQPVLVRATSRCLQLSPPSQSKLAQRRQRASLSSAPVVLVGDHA

## Cc1cc([C@@H](C)Nc2ccccc2C(=O)O)c2nc(N3CCOCC3)cc(=O)n2c1 [AZD-6482]
[1]
  % of control: 100%

## CN(C)C/C=C/C(=O)Nc1ccc(C(=O)N2CCCC(Nc3ncc(Cl)c(-c4c[nH]c5ccccc45)n3)C2)cc1 (stereo unspecified)
[2]
  % of control: 70%
[3]
  % of control: 88%

## CC[C@@H]1[C@H](F)C(=O)N[C@@H]1COc1nccc2cc(C(N)=O)c(OC)cc12 [ZIMLOVISERTIB]
[4]
  % of inhibition: 28.3%
[5]
  % of inhibition: 5.1%
[6]
  % of inhibition: 37.4%
[7]; at 0.01 µM
  % of inhibition: 2.3%
[7]; at 0.04 µM
  % of inhibition: 8.5%
[7]; at 0.2 µM
  % of inhibition: 2.2%
[7]; at 1 µM
  % of inhibition: 19.8%
[7]; at 5 µM
  % of inhibition: 60.7%

## Cc1cc(CN)cc(C)c1-c1ncn(C)c1-c1cncn1C
[8]
  dTagg: 0.1 K

## CCC(=O)N1CC[C@H](Nc2ncnc3c2CN(c2cnc(OC)c(C(F)(F)F)c2)CC3)C1 [LENIOLISIB]
D(3) dopamine receptor
  IC50: > 30 µM

## Cc1cc(C)cc([C@@H]2c3cc(C)ccc3NC(=O)CN2C(=O)c2ccc(Br)s2)c1
Adenosine receptor A2a
  % of inhibition: 2%

## COc1cc(N(C)c2ccnc3ccc(C(F)(F)F)cc23)cc(OC)c1OC
[9]
  % binding: 82%
[10]
  % binding: 100%
[11]
  % binding: 96%

## C=CC(=O)Nc1cccc(C(=O)Nc2ccc(Nc3cc(-c4[nH]c(SC)nc4C)ccn3)cc2)c1
[12]; at 1 µM
  % of control: 72%
[12]; at 5 µM
  % of control: 65%

## CN(C)CCCOc1ccc(-c2cc(NCCCn3cccn3)nc(S(C)(=O)=O)n2)cc1
[13]
  dTM: < 2 K

## N#Cc1cccc(-c2c[nH]c3ncnc(N4CCOCC4)c23)c1
[14]
  % of inhibition: 1%

## O[C@H]1CC[C@H](Nc2ncc3nc(Nc4c(F)cc(F)cc4F)n([C@H]4CCOC4)c3n2)CC1
[15]
  % of control: 84%

## CNC(=O)Nc1ccc(-c2nc(N3CC4CCC(C3)O4)c3cnn(C4CCC5(CC4)OCCO5)c3n2)cc1
[16]
  % of control: 92%
[17]
  % of control: 92%
[18]
  % of control: 9.6%

## C=CC(=O)Nc1ccc(C(=O)Nc2[nH]nc3c2CN(C(=O)N[C@H](CN(C)C)c2ccccc2)C3(C)C)cc1
[19]
  % of engagement: 11.1%
